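48-hour exposure; five concentrations; linearly interpolated endpoints. GI50: concentration for 50% inhibition of growth.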 Activity calls are given as the source filed them. Rule as the data show it: active = GI50 up to about 1.1 µM and inactive = higher.
Key:
Test in all cases: NCI tumour cell line growth inhibition, 48 h
786-0 = system: 786-0
CAKI-1 = system: CAKI-1
DU-145 = system: DU-145
EKVX = system: EKVX
HOP-92 = system: HOP-92
KM12 = system: KM12
M14 = system: M14
MCF7 = system: MCF7
MDA-MB-435 = system: MDA-MB-435
NCI-H23 = system: NCI-H23
SF-268 = system: SF-268
SF-295 = system: SF-295
SK-MEL-5 = system: SK-MEL-5
SNB-19 = system: SNB-19
SNB-75 = system: SNB-75
SR = system: SR
TK-10 = system: TK-10
UACC-257 = system: UACC-257
UO-31 = system: UO-31
HL-60 = system: HL-60

Measured: GI50

COc1cc2c(cc1OCc1ccccc1)NC(=O)[C@@H]1C[C@@H](O)CN1C2=O
inactive: 786-0 > 100 µM | CAKI-1 > 100 µM | DU-145 > 100 µM | EKVX > 100 µM | HOP-92 > 100 µM | KM12 > 100 µM | M14 > 100 µM | MCF7 > 100 µM | MDA-MB-435 > 100 µM | NCI-H23 > 100 µM | SF-268 > 100 µM | SF-295 > 100 µM | SK-MEL-5 > 100 µM | SNB-19 > 100 µM | SNB-75 35.6 µM | SR 47 µM | TK-10 > 100 µM | UACC-257 > 100 µM | UO-31 > 100 µM

CN(C)C(Cc1c[nH]cn1)C(=O)N1CCCC1C(N)=O (stereo not given)
inactive: 786-0 > 100 µM | CAKI-1 > 100 µM | DU-145 > 100 µM | EKVX > 100 µM | HL-60 > 100 µM | HOP-92 > 100 µM | KM12 > 100 µM | M14 > 100 µM | MCF7 > 100 µM | MDA-MB-435 > 100 µM | NCI-H23 > 100 µM | SF-268 > 100 µM | SF-295 > 100 µM | SK-MEL-5 > 100 µM | SNB-19 > 100 µM | SNB-75 > 100 µM | SR > 100 µM | TK-10 > 100 µM | UO-31 > 100 µM

O=C1C=C(c2ccccc2)O/C1=C/C(=O)c1ccc(Cl)cc1
inactive: 786-0 15.9 µM | CAKI-1 14 µM | DU-145 37.3 µM | EKVX 90.4 µM | HL-60 1.66 µM | HOP-92 19.2 µM | KM12 20.8 µM | M14 19 µM | MCF7 16.5 µM | MDA-MB-435 15.2 µM | NCI-H23 > 10 µM | SF-268 23.9 µM | SK-MEL-5 16.7 µM | SNB-19 35.5 µM | SNB-75 10.6 µM | SR 2.93 µM | TK-10 20.2 µM | UACC-257 20.7 µM | UO-31 23.3 µM

CCO/C(Cc1ccc(Cl)cc1)=N/NC(N)=S
inactive: 786-0 > 100 µM | CAKI-1 > 100 µM | DU-145 > 100 µM | EKVX > 100 µM | HOP-92 > 100 µM | KM12 > 100 µM | M14 > 100 µM | MCF7 > 100 µM | MDA-MB-435 > 100 µM | NCI-H23 > 100 µM | SF-295 > 100 µM | SK-MEL-5 84.5 µM | SNB-19 > 100 µM | SNB-75 > 100 µM | SR > 100 µM | TK-10 > 100 µM | UACC-257 > 100 µM | UO-31 72.9 µM

COc1cccc(N2C(=O)C3CC(CC(C)(C)C)c4c([nH]c5ccccc45)C3C2=O)c1 (stereo not given)
inactive: 786-0 3.8 µM | CAKI-1 > 10 µM | DU-145 > 10 µM | EKVX > 10 µM | HL-60 > 10 µM | HOP-92 > 10 µM | KM12 > 10 µM | M14 5.82 µM | MCF7 8.55 µM | MDA-MB-435 > 10 µM | NCI-H23 > 10 µM | SF-268 > 10 µM | SF-295 > 10 µM | SK-MEL-5 > 10 µM | SNB-19 > 10 µM | SNB-75 1.84 µM | SR 1.48 µM | TK-10 > 10 µM | UACC-257 > 10 µM

Cc1ccc(/N=N/c2cc(=O)[nH]c(=O)[nH]2)cc1C
inactive: 786-0 2.82 µM | DU-145 14.7 µM | EKVX 17.9 µM | HL-60 3.01 µM | HOP-92 16.4 µM | KM12 12.1 µM | M14 14.2 µM | MCF7 12.3 µM | MDA-MB-435 11.2 µM | SF-268 19.8 µM | SF-295 15.3 µM | SK-MEL-5 15.8 µM | SNB-19 17.2 µM | SNB-75 3.9 µM | SR 3.6 µM | TK-10 19.4 µM | UACC-257 13.7 µM | UO-31 17.9 µM

O=C1CC(C(O)(C(F)(F)F)C(F)(F)Cl)CCC1C(O)(C(F)(F)F)C(F)(F)Cl (stereo not given)
inactive: 786-0 > 10 µM | CAKI-1 > 10 µM | DU-145 > 10 µM | EKVX > 10 µM | HL-60 > 10 µM | HOP-92 1.26 µM | KM12 > 10 µM | M14 > 10 µM | MCF7 8.71 µM | MDA-MB-435 > 10 µM | NCI-H23 9.55 µM | SF-268 > 10 µM | SF-295 7.5 µM | SK-MEL-5 > 10 µM | SNB-19 > 10 µM | SNB-75 8.71 µM | SR > 10 µM | TK-10 > 10 µM | UACC-257 4.18 µM

O=C(Nn1c(-c2ccccc2)nc2ccccc2c1=O)c1ccc([N+](=O)[O-])cc1
inactive: 786-0 > 100 µM | DU-145 > 100 µM | EKVX > 100 µM | HL-60 > 100 µM | HOP-92 32.4 µM | KM12 > 100 µM | M14 > 100 µM | MCF7 58.7 µM | MDA-MB-435 > 100 µM | NCI-H23 > 100 µM | SF-268 > 100 µM | SF-295 > 100 µM | SK-MEL-5 64.1 µM | SNB-19 > 100 µM | SNB-75 > 100 µM | SR > 100 µM | TK-10 > 100 µM | UACC-257 > 100 µM | UO-31 > 100 µM

— ChEMBL document CHEMBL1201862, “PubChem BioAssay data set” (2004)
